Laboratory results reported in ChEMBL document CHEMBL6134851, “Comparative Study on Covalent and Noncovalent Endogenous Albumin-Binding β-Glucuronidase-Activated SN38 Prodrugs for Antitumor Efficacy” (J Med Chem, 2025).
Active and inactive are the calls of the source. The calls are words filed in the database; no cut-off is given here.

Assays:
[1] = Toxicity in female BALB/cA nude mouse assessed as mortality at 25 mg/kg, iv administered twice per week measured after 107 days; assay type: organism-based; details: in vivo, 2568 h, time 107 day
[2] = Toxicity in female BALB/cA nude mouse assessed as appearance of inflammatory lesions in lung at 25 mg/kg, iv administered once a week for 35 days by H and E staining based analysis; assay type: organism-based; details: in vivo, 840 h, time 35 day
HCT-116 [3] = experiment: Antitumor activity against human HCT-116 cells xenografted in female BALB/cA nude mouse model assessed as tumor shrinkage by measuring relative tumor proliferation rate at 25 mg/kg,iv administered twice per week and measured after 24 days relative to control; assay type: functional; details: time 24 day
[4] = Prodrug release in female BALB/c nude mouse tumor assessed as (S)-4,11-diethyl-4,9-dihydroxy-1,12-dihydro-14H-pyrano[3',4':6,7]indolizino[1,2-b]quinoline-3,14(4H)-dione accumulation at 25 mg/kg measured after 12 hr by HPLC analysis; assay type: ADME, organism-based, Neoplasm; details: in vivo
HCT-116 [5] = experiment: Antitumor activity against human HCT-116 cells xenografted in female BALB/cA nude mouse model assessed as increase in tumor cell apoptosis by measuring increase in red fluorescence at 38 mg/kg, iv by TUNEL analysis; assay type: functional, organism-based
[6] = Toxicity in female BALB/cA nude mouse assessed as appearance of inflammatory lesions in tumor at 38 mg/kg, iv administered once a week for 35 days by H and E staining based analysis; assay type: organism-based; details: in vivo, 840 h, time 35 day
[7] = Toxicity in female BALB/cA nude mouse assessed as appearance of inflammatory lesions in heart at 38 mg/kg, iv administered once a week for 35 days by H and E staining based analysis; assay type: organism-based; details: in vivo, 840 h, time 35 day
[8] = Toxicity in female BALB/cA nude mouse assessed as fibrotic changes in liver at 38 mg/kg, iv administered once a week for 35 days by H and E staining based analysis; assay type: organism-based; details: in vivo, 840 h, time 35 day

Question: Which results are given for `CCc1c2c(nc3ccc(OCc4ccc(O[C@@H]5O[C@H](C(=O)O)[C@@H](O)[C@H](O)[C@H]5O)c(NC(=O)CCNC(=O)CCCCCN5C(=O)C=CC5=O)c4)cc13)-c1cc3c(c(=O)n1C2)COC(=O)[C@]3(O)CC`?
Answer: Activity [1]: Non-toxic; Activity [2]: Non-toxic; Activity (HCT-116 [3]): 4.6%; Drug metabolism [4]: 0.725 % ID/g

Question: Which Activity (HCT-116 [5]) does the source give for `CCc1c2c(nc3ccc(OCc4ccc(O[C@@H]5O[C@H](C(=O)O)[C@@H](O)[C@H](O)[C@H]5O)c(NC(=O)CCNC(=O)COCCOCCNC(=O)COCCOCCNC(=O)CC[C@H](NC(=O)CCCCCCCCCCCCCCCCC(=O)O)C(=O)O)c4)cc13)-c1cc3c(c(=O)n1C2)COC(=O)[C@]3(O)CC` here?
Answer: Its Activity is “Active”.

Question: And the Activity [6]?
Answer: Its Activity is “Non-toxic”.

Question: What about the Activity [7] of the same molecule?
Answer: The Activity was “Non-toxic”.

Question: And the Activity [8]?
Answer: Its Activity is “Non-toxic”.
